Experimental data as given in patent US20220106282A1, “TREATMENT FOR BREAST CANCER, INCLUDING TRIPLE-NEGATIVE BREAST CANCER” (priority 2018, published 2022).
Values joined by “and” are separate entries in the source; they are usually repeats but may differ in a detail not shown here. Identical values can stand only once. “Also recorded” adds a separate entry of the source. Marks after values point to notes of the source that are not given here.

Columns and labels:
[1] = tested on: FVB mice transgenic for HER-2/neu; test: Acute oral toxicity, OECD 423 test; assay type: in vivo
Experimental: 12 female mice were used in the experiment.
The dosage form for administration was prepared ex tempore.
No deaths were detected either.
Further the observations were made once per day.
The medicament was administered in 2 steps with a break of 3 hours in a volume of 0.1 ml per 10 g of a body weight per step at the concentration of 100 mg/ml, because the suspension in oil is thicker at higher concentrations and precludes the medicament to be administered through a gavage. […] Regardless of the group the width of the palpebral fissure of the animals was almost unchanged during the entire observation period. No pathological discharges from the eyes were detected. The nose was pink, moderately moist without pathological discharges. The fur of all mice was neat and shiny without bald spots. A 3% decrease of the animals body weight was registered on Day 2 and a 4% weight decrease on Day 7 from the initial weight (Table 3).

[2] = tested on: breast tumors in female FVB mice transgenic for HER-2/neu; test: Antitumor activity on model of multiple breast tumors in HER-2/neu transgenic mice; details: for % of change from baseline (average total tumor volume) / % of change to the initial value (average tumor volume): Day 27 vs Day −1; for Average volume of new tumors, % less than that of the control group: end of observation; for Absolute number of new tumors / Frequency of tumor stabilizations: end of study; for Frequency of tumor stabilizations: volume not increased by more than 20%; for Average volume of new tumors at the end of the observation period (M): listed as medicament
Experimental: Two adenocarcinoma subtypes can be differentiated, in particular ER+, PR−, and ER−, PR− [2].
The study was carried out in female FVB mice transgenic for HER-2/neu by conventional category; the strain was obtained from the mouse bank Charles River Laboratories (Italy). At the beginning of the study the animals were 21-41 weeks old having weight of 25 to 30 g.
The study medicament was administered i.g. using a metal atraumatic gavage (with the procedure corresponds to the oral route of administration in clinical settings). The medicament was administered in a single daily dose (20 mg/kg of body weight) and 5-fold daily dose of 100 mg/kg of body weight. Ex tempore solutions of the medicament for administration were prepared in olive oil (refined olive oil supplemented with unrefined extra virgin olive oil available under Global Village “Clasico” trademark, lot L:183351116, expiry date 26 Apr. 2020, BAIEO, Spain). The administered volume was 0.1 ml per 10 g of a mouse body weight (0.2 ml of a ready-to-use formulation for a mouse of 20 g). The medicament administration was started 24 hours after the randomization. The duration of the administration course was 27-28 days.
This dose corresponds to a human daily dose of 20 mg/kg.
The control groups were given the olive oil (placebo).
The evaluation criteria included the clinical observation data, animals body weights, time of death (if applicable), tumor growth over time, pathomorphological examination data (verification of a neoplasm during autopsy, assessment of toxic effects by macroscopic presentation of changes in the internal organs).
The animals body weights were recorded before the first administration of the medicaments and then twice per week using a verified high-speed electronic laboratory balance Ohaus Scout Pro (USA) with a maximum load of 2000 g and a measurement step of 0.1 g.
Macroscopically detectable tumor nodes were measured in animals once per week during weighing process. Two linear dimensions including the largest one and the largest rectangular to the former were recorded for each of the nodes. The largest dimension was taken as a length (a) and the second dimension as a width (b) of the tumor nodes. A tumor volume was calculated by the expression as follows: […]
The efficacy of the therapy was assessed by recording a change in the average tumor volume, tumor growth inhibition (TGI), and the average total tumor volumes and its change over time in each of the mice.
The percent of tumor growth inhibition was calculated by the expression as follows:
TGI=(Vctrl−Vexp)/Vctrl×100(%),
where Vctrl is an average tumor volume in a control group, and Vexp is an average tumor volume in an experimental group.
The primary data from individual forms were transferred to Microsoft Excel 2007 books. The group arithmetic average (M) and standard deviation (m) were calculated for all quantitative data. The statistical analysis was performed using the statistical software GraphPad Prism 6.0. The differences between the groups were assessed using ANOVA regression analysis and the Fisher's exact test.

uterine body = test: Hormonal effect: uterine body weight in tumor-bearing mice; assay type: in vivo, mouse
Experimental: To estimate the hormonal effect of the medicament, the weight of the uterine body without uterine horns was measured (Table 9).

ovariectomized rats = test: Biochemical parameters of ovariectomized rats; assay type: in vivo, rat; details: ovariectomised rats

C[C@H]1Oc2cc(OS(N)(=O)=O)ccc2[C@H]2CC[C@]3(C)C(=O)CCC[C@H]3[C@H]21 [compound of formula (1), 3-O-sulphamoyloxy-7β-methyl-D-homo-6-oxa-8α-estra-1,3,5(10)-trien-17a-one]
Body weight, individual mice ([1]; 2000 mg/kg i.g. (title of Table 3), Day 1 (before administration), listed as medicament): 26.0 and 28.4 and 27.7 and 26.2 (2×) and 28.3 | Body weight, average ([1]; 2000 mg/kg i.g., Day 1 (before administration)): 27.1 g | Body weight, individual mice ([1]; 2000 mg/kg i.g., Day 2, listed as medicament, in g (unit assumed)): 25.7 and 27.7 and 27.0 and 25.3 and 27.4 and 24.7 | Body weight, individual mice ([1]; 2000 mg/kg i.g., Day 7, listed as medicament, in g (unit assumed)): 25.0 and 25.8 and 29.6 and 24.6 and 27.6 and 25.7 | Body weight, individual mice ([1]; 2000 mg/kg i.g., Day 14, listed as medicament, in g (unit assumed)): 25.1 and 28.3 and 28.0 and 25.9 and 29.1 and 26.5 | Decrease of body weight from the initial weight ([1]; 2000 mg/kg, Day 2): 3% | LD50 ([1]; oral (i.g.), OECD 423, listed as anti-cancer agent): > 5000 mg/kg | Hazard category according to the OECD 423 test ([1]; oral (i.g.), listed as anti-cancer agent): 5th | Hazard category according to the OECD 423 test ([1]; oral (i.g.), listed as medicament): 5th or non-classified and 5th or unclassified | Average total volume of tumors in mice (M) ([2]; 20 mg/kg i.g. daily, Day 6): 0.86 cm^3 | Average volume of tumors present at the beginning of the experiment (M) ([2]; 20 mg/kg i.g. daily, Day 6): 0.32 cm^3 | Relative change of the average total volume of tumors to that of Day −1 (M) ([2]; 20 mg/kg i.g. daily, Day 6): 20% | TGI (average total tumor volume) ([2]; 20 mg/kg i.g. daily, Day 6): −26% | TGI (average tumor volume) ([2]; 20 mg/kg i.g. daily, Day 6): −7% | Average total volume of tumors in mice (M) ([2]; 20 mg/kg i.g. daily, Day 13): 1.04 cm^3 | Average volume of tumors present at the beginning of the experiment (M) ([2]; 20 mg/kg i.g. daily, Day 13): 0.39 cm^3 | Relative change of the average total volume of tumors to that of Day −1 (M) ([2]; 20 mg/kg i.g. daily, Day 13): 38** % | TGI (average total tumor volume) ([2]; 20 mg/kg i.g. daily, Day 13): 19% | TGI (average tumor volume) ([2]; 20 mg/kg i.g. daily, Day 13): 30% | Average total volume of tumors in mice (M) ([2]; 20 mg/kg i.g. daily, Day 20): 1.61 cm^3 | Average volume of tumors present at the beginning of the experiment (M) ([2]; 20 mg/kg i.g. daily, Day 20): 0.6 cm^3 | Relative change of the average total volume of tumors to that of Day −1 (M) ([2]; 20 mg/kg i.g. daily, Day 20): 101** % | TGI (average total tumor volume) ([2]; 20 mg/kg i.g. daily, Day 20): −7% | TGI (average tumor volume) ([2]; 20 mg/kg i.g. daily, Day 20): 9% | Average total volume of tumors in mice (M) ([2]; 20 mg/kg i.g. daily, Day 27): 2.19 cm^3 | Average volume of tumors present at the beginning of the experiment (M) ([2]; 20 mg/kg i.g. daily, Day 27): 0.81 cm^3 | Relative change of the average total volume of tumors to that of Day −1 (M) ([2]; 20 mg/kg i.g. daily, Day 27): 212** % | TGI (average total tumor volume) ([2]; 20 mg/kg i.g. daily, Day 27): −7% | TGI (average tumor volume) ([2]; 20 mg/kg i.g. daily, Day 27): 9% | % of change from baseline (average total tumor volume) ([2]; 20 mg/kg i.g. daily): 204% | % of change to the initial value (average tumor volume) ([2]; 20 mg/kg i.g. daily): 200% | Average total volume of tumors in mice (M) ([2]; 20 mg/kg i.g. daily, Day −1): 0.72 cm^3 | Average volume of tumors present at the beginning of the experiment (M) ([2]; 20 mg/kg i.g. daily, Day −1): 0.27 cm^3 | Relative change of the average total volume of tumors to that of Day −1 (M) ([2]; 20 mg/kg i.g. daily, Day −1): 0% | TGI (average total tumor volume) ([2]; 20 mg/kg i.g. daily, Day −1): −71% | TGI (average tumor volume) ([2]; 20 mg/kg i.g. daily, Day −1): −50% | Average volume of new tumors, % less than that of the control group ([2]; 20 mg/kg i.g. daily): 18% | Absolute number of new tumors ([2]; 20 mg/kg i.g. daily): 29 | Frequency of tumor stabilizations ([2]; 20 mg/kg i.g. daily): 19% | Average volume of new tumors at the end of the observation period (M) ([2]; 20 mg/kg i.g. daily): 0.27±0.05 cm^3 and 0.27 cm^3 | Average total volume of tumors in mice (M) ([2]; 100 mg/kg i.g. daily, Day 6): 0.94 cm^3 | Average volume of tumors present at the beginning of the experiment (M) ([2]; 100 mg/kg i.g. daily, Day 6): 0.38 cm^3 | Relative change of the average total volume of tumors to that of Day −1 (M) ([2]; 100 mg/kg i.g. daily, Day 6): 26% | TGI (average total tumor volume) ([2]; 100 mg/kg i.g. daily, Day 6): −38% | TGI (average tumor volume) ([2]; 100 mg/kg i.g. daily, Day 6): −27% | Average total volume of tumors in mice (M) ([2]; 100 mg/kg i.g. daily, Day 13): 1.15 cm^3 | Average volume of tumors present at the beginning of the experiment (M) ([2]; 100 mg/kg i.g. daily, Day 13): 0.46 cm^3 | Relative change of the average total volume of tumors to that of Day −1 (M) ([2]; 100 mg/kg i.g. daily, Day 13): 68** % | TGI (average total tumor volume) ([2]; 100 mg/kg i.g. daily, Day 13): 11% | TGI (average tumor volume) ([2]; 100 mg/kg i.g. daily, Day 13): 18% | Average total volume of tumors in mice (M) ([2]; 100 mg/kg i.g. daily, Day 20): 1.36 cm^3 | Average volume of tumors present at the beginning of the experiment (M) ([2]; 100 mg/kg i.g. daily, Day 20): 0.55 cm^3 | Relative change of the average total volume of tumors to that of Day −1 (M) ([2]; 100 mg/kg i.g. daily, Day 20): 139* % | TGI (average total tumor volume) ([2]; 100 mg/kg i.g. daily, Day 20): 10% | TGI (average tumor volume) ([2]; 100 mg/kg i.g. daily, Day 20): 17% | Average total volume of tumors in mice (M) ([2]; 100 mg/kg i.g. daily, Day 27): 1.74 cm^3 | Average volume of tumors present at the beginning of the experiment (M) ([2]; 100 mg/kg i.g. daily, Day 27): 0.7 cm^3 | Relative change of the average total volume of tumors to that of Day −1 (M) ([2]; 100 mg/kg i.g. daily, Day 27): 198** % | TGI (average total tumor volume) ([2]; 100 mg/kg i.g. daily, Day 27): 15% | TGI (average tumor volume) ([2]; 100 mg/kg i.g. daily, Day 27): 21% | % of change from baseline (average total tumor volume) ([2]; 100 mg/kg i.g. daily): 102% | % of change to the initial value (average tumor volume) ([2]; 100 mg/kg i.g. daily): 106% | Average total volume of tumors in mice (M) ([2]; 100 mg/kg i.g. daily, Day −1): 0.86 cm^3 | Average volume of tumors present at the beginning of the experiment (M) ([2]; 100 mg/kg i.g. daily, Day −1): 0.34 cm^3 | Relative change of the average total volume of tumors to that of Day −1 (M) ([2]; 100 mg/kg i.g. daily, Day −1): 0% | TGI (average total tumor volume) ([2]; 100 mg/kg i.g. daily, Day −1): −105% | TGI (average tumor volume) ([2]; 100 mg/kg i.g. daily, Day −1): −89% | Average volume of new tumors, % less than that of the control group ([2]; 100 mg/kg i.g. daily): 39% | Absolute number of new tumors ([2]; 100 mg/kg i.g. daily): 25 | Frequency of tumor stabilizations ([2]; 100 mg/kg i.g. daily): 16% | Average volume of new tumors at the end of the observation period (M) ([2]; 100 mg/kg i.g. daily): 0.20±0.05 cm^3 and 0.20 cm^3 | Tumor growth inhibition compared to Tamoxifen ([2]; FVB mice transgenic for HER-2/neu with breast tumors): inhibits tumor growth to the same extent as clinically approved Tamoxifen | Signs of toxic damage to the internal organs at autopsy ([2]; end of the experiment, 27-28 days of administration): No specific signs of toxic damage to the internal organs were detected | Uterine body weight (uterine body; 20 mg/kg, all mice): 48 ± 5 mg | Uterine body weight (uterine body; 20 mg/kg, estrous phase D): 49 ± 16 mg | Uterine body weight (uterine body; 20 mg/kg, estrous phase E): 47 ± 7 mg | Uterine body weight (uterine body; 100 mg/kg, all mice): 50 ± 6 mg | Uterine body weight (uterine body; 100 mg/kg, estrous phase D): 26 ± 12 mg | Uterine body weight (uterine body; 100 mg/kg, estrous phase E): 56 ± 5 mg | Hormonal (uterotropic) effect on the uterus (uterine body; uterine body weight versus control group, listed as medicament): no uterotropic activity; also recorded: did not differ from that of the control group | Uterotropic activity (ovariectomized rats): no uterotropic activity | Uterus weight (ovariectomized rats; medicament 5 mg/kg bw): 33 ± 3 mg/100 g bw
